In article PMC4462585, “Synthesis and Biological Evaluation of 3-Alkyl-1,5-Diaryl-1H-Pyrazoles as Rigid Analogues of Combretastatin A-4 with Potent Antiproliferative Activity” (PLoS ONE, 2015) one finds IC50 and melting point data, which are given here for 23 compounds.

Data set [1] has as its system pulmonary adenocarcinoma cell line A549. The experiment in a line: MTT antiproliferative assay, A549. The settings on record: Homo sapiens, 72 h drug exposure, triplicate, read-out: Antiproliferative activity (IC50 ± SD) A549. Type of data set: cell-based. An excerpt: (§1) Pulmonary adenocarcinoma cell lines (A549) and gastric adenocarcinoma cell lines (SGC-7901) were provided as gifts (purchased from the Cell Resource Center of Shanghai Institutes for Biological Sciences) from the China-Japan Research Institute of Medical and Pharmaceutical Sciences, Shenyang Pharmaceutical University. Fibrosarcoma cell lines (HT-1080) were purchased from the Cell Resource Center of Shanghai Institutes for Biological Sciences. All cells were maintained in DMEM containing 1% antibiotics (100 units of penicillin and […] per mL in 0.9% normal saline) and 10% foetal bovine serum in a humidified atmosphere containing 5% CO2 at 37°C.
(§2) Antiproliferative activities of CA-4 and the target compounds were measured using a colourimetric assay using 3-(4,5-dimethylthiazol-2yl-)-2,5-diphenyltetrazolium bromide (MTT). Approximately 3 × 10^4 cells were seeded in a 96-well plate. After 24 h of incubation at 37°C, cells were exposed to compounds of differing concentrations (0.0008 μg/mL, 0.004 μg/mL, 0.02 μg/mL, 0.10 μg/mL, 0.50 μg/mL, 2.5 μg/mL, 12.5 μg/mL, 62.5 μg/mL) for 72 h. After treatment, cells were washed with 1X PBS followed by addition of 100 μL of 0.05% MTT reagent to each well, followed by incubation for 4 h at 37°C. After incubation, the supernatant from each well was carefully removed and the formazan crystals were dissolved in 100 μL of DMSO. The colour density was measured spectrophotometrically at 490 nm using a microplate reader (SpectraMax Plus384, Molecular Devices Corp., USA). The percentage of cell growth inhibition was calculated as follow: inhibition ratio % = (Acontrol—Atreated) / Acontrol × 100%. The 50% inhibitory concentration (IC50) was defined as the concentration that reduced the absorbance of the untreated wells by 50% of the vehicle in the MTT assay.
(In general: Tetrazolium assays rely on reduction of a dye to a coloured formazan, in cell work by metabolically active cells.)

The test system of data set [2] is fibrosarcoma cell line HT-1080. Nature of the data set: MTT antiproliferative assay, HT-1080. It counts as cell-based. The settings on record: Homo sapiens, 72 h drug exposure, triplicate, read-out: Antiproliferative activity (IC50 ± SD) HT-1080.
Excerpt: as §1, §2

Data set [3] has as its system gastric adenocarcinoma cell line SGC-7901. The experiment in a line: MTT antiproliferative assay, SGC-7901. It counts as cell-based. Particulars: Homo sapiens, 72 h drug exposure, triplicate, read-out: Antiproliferative activity (IC50 ± SD) SGC-7901.
Excerpt: as §1, §2

Regarding `COc1cc(-n2nc(C)cc2-c2ccccc2)cc(OC)c1OC` [Compound 7a, 3-Methyl-5-phenyl-1-(3,4,5-trimethoxyphenyl)-1H-pyrazole], the melting point (usually the temperature of the solid-liquid transition) was in the range of 77 to 78 °C. In addition, the concentration for half-maximal inhibition (IC50) (commonly the concentration at which inhibition is half-maximal) in data set [1] is more than 100 µM. Further, in data set [2], the concentration for half-maximal inhibition (IC50) was more than 100 µM. The half-inhibitory concentration (IC50) in data set [3] was more than 100 µM.
Regarding `COc1ccc(-c2cc(C)nn2-c2cc(OC)c(OC)c(OC)c2)cc1` [Compound 7b, 3-Methyl-5-(4-methoxyphenyl)-1-(3,4,5-trimethoxy-phenyl)-1H-pyrazole], the melting point fell in the range of 118 to 119 °C. In data set [1], the half-inhibitory concentration (IC50) stood at 15.2 ± 2.2 µM. In addition, the half-inhibitory concentration (IC50) in data set [2] was found to be 1.01 ± 0.12 µM. The half-inhibitory concentration (IC50) in data set [3] is 0.73 ± 0.09 µM.
For the compound `COc1cc(-n2nc(C)cc2-c2ccc(C)cc2)cc(OC)c1OC` [Compound 7c, 3-Methyl-5-(4-methylphenyl)-1-(3,4,5-trimethoxy-phenyl)-1H-pyrazole], the IC50 in data set [1] was 2.35 ± 0.33 µM; in data set [2], 1.23 ± 0.15 µM; in data set [3], 0.53 ± 0.2 µM.
The compound `COc1cc(-n2nc(C)cc2-c2ccc(F)cc2)cc(OC)c1OC` [Compound 7d, 3-Methyl-5-(4-fluorophenyl)-1-(3,4,5-trimethoxyphenyl)-1H-pyrazole] showed a melting point of 104 to 105 °C. Further, in data set [1], the half-inhibitory concentration (IC50) was more than 100 µM. Further, the IC50 in data set [2] is more than 100 µM. Moreover, the 50% inhibitory concentration (IC50) in data set [3] was 20.7 ± 1.2 µM.
Take `COc1ccc(-c2cc(C)nn2-c2cc(OC)c(OC)c(OC)c2)cc1F` [Compound 7e, 3-Methyl-5-(3-fluoro-4-methoxyphenyl)-1-(3,4,5-trimethoxyphenyl)-1H-pyrazole]: the melting point is 86 to 87 °C. Further, in data set [1], the IC50 is 2.84 ± 0.52 µM. In addition, in data set [2], the concentration for half-maximal inhibition (IC50) stood at 5.52 ± 0.26 µM. Also, the IC50 in data set [3] turned out to be 3.05 ± 0.33 µM.
In turn, `C=CCOc1ccc(-c2cc(C)nn2-c2cc(OC)c(OC)c(OC)c2)cc1OC` [Compound 7f, 3-Methyl-5-(4-allyloxy-3-methoxyphenyl)-1-(3,4,5-trimethoxyphenyl)-1H-pyrazole] showed a melting point of 78 to 79 °C. Further, the half-maximal inhibitory concentration (IC50) in data set [1] was more than 100 µM. The half-inhibitory concentration (IC50) in data set [2] is more than 100 µM. The IC50 in data set [3] is 23.6 ± 2.3 µM.
In turn, `C=CCOc1cc(-c2cc(C)nn2-c2cc(OC)c(OC)c(OC)c2)ccc1OC` [Compound 7g, 3-Methyl-5-(3-allyloxy-4-methoxyphenyl)-1-(3,4,5-trimethoxyphenyl)-1H-pyrazole] displayed a melting point of 79 to 80 °C. The IC50 in data set [1] was more than 100 µM. The 50% inhibitory concentration (IC50) in data set [2] was more than 100 µM. In addition, the half-inhibitory concentration (IC50) in data set [3] came out at 6.45 ± 0.22 µM.
In turn, `COc1ccc(-c2cc(C)nn2-c2cc(OC)c(OC)c(OC)c2)cc1[N+](=O)[O-]` [Compound 7h, 3-Methyl-5-(4-methoxy-3-nitrophenyl)-1-(3,4,5-trimethoxyphenyl)-1H-pyrazole] had a melting point of 145 to 146 °C. Also, the IC50 in data set [1] is more than 100 µM. The concentration for half-maximal inhibition (IC50) in data set [2] was more than 100 µM. Further, the IC50 in data set [3] was determined as 5.22 ± 0.19 µM.
Regarding `COc1cc(-c2cc(C)nn2-c2cc(OC)c(OC)c(OC)c2)ccc1O` [Compound 7j, 3-Methyl-5-(4-hydroxy-3-methoxyphenyl)-1-(3,4,5-trimethoxyphenyl)-1H-pyrazole], the melting point was in the range of 197 to 198 °C. For the same compound, the IC50 in data set [1] is more than 100 µM. Further, the IC50 in data set [2] is more than 100 µM. The IC50 in data set [3] came out at 25.9 ± 2.3 µM.
`COc1ccc(-c2c(C=O)c(C)nn2-c2cc(OC)c(OC)c(OC)c2)cc1O` [Compound 7l, 4-Formyl-3-methyl-5-(3-hydroxy-4-methoxyphenyl)-1-(3,4,5-trimethoxyphenyl)-1H-pyrazole] yielded a melting point of 97 to 98 °C. For the same compound, the IC50 in data set [1] was 45.7 ± 3.3 µM. Also, the half-maximal inhibitory concentration (IC50) in data set [2] turned out to be 23.8 ± 1.8 µM. Besides, the IC50 in data set [3] was 16.4 ± 1.5 µM.
In turn, `COc1ccc(-c2c(CO)c(C)nn2-c2cc(OC)c(OC)c(OC)c2)cc1O` [Compound 7m, 4-Hydroxymethyl-3-methyl-5-(3-hydroxy-4-methoxy-phenyl)-1-(3,4,5-trimethoxyphenyl)-1H-pyrazole] came in with a melting point of 166 to 167 °C. In addition, the IC50 in data set [1] turned out to be 9.04 ± 0.25 µM. Also, the IC50 in data set [2] is 7.11 ± 0.23 µM. Besides, the IC50 in data set [3] was 8.42 ± 0.32 µM.
On the same counts, the results for `COc1ccc(-c2c(Br)c(C)nn2-c2cc(OC)c(OC)c(OC)c2)cc1[N+](=O)[O-]` [Compound 7n, 4-Bromo-3-methyl-5-(4-methoxy-3-nitrophenyl)-1-(3,4,5-trimethoxyphenyl)-1H-pyrazole] are 182 to 183 °C, more than 100 µM, more than 100 µM and more than 100 µM.
Turning to `COc1ccc(-c2c(Br)c(C)nn2-c2cc(OC)c(OC)c(OC)c2)cc1N` [Compound 7o, 4-Bromo-3-methyl-5-(3-amino-4-methoxyphenyl)-1-(3,4,5-trimethoxyphenyl)-1H-pyrazole], the melting point lay within 128 to 129 °C. Moreover, the concentration for half-maximal inhibition (IC50) in data set [1] was determined as 79.1 ± 2 µM. Besides, in data set [2], the IC50 came out at 15.9 ± 3.2 µM. The half-inhibitory concentration (IC50) in data set [3] came to 14.3 ± 3.1 µM.
Taken in the same sequence, the figures for `CCc1cc(-c2ccc(OC)c([N+](=O)[O-])c2)n(-c2cc(OC)c(OC)c(OC)c2)n1` [Compound 7p, 3-Ethyl-5-(4-methoxy-3-nitrophenyl)-1-(3,4,5-trimethoxyphenyl)-1H-pyrazole] were 151 to 152 °C, more than 100 µM, more than 100 µM and more than 100 µM.
Taken in the same sequence, the figures for `CCCc1cc(-c2ccc(OC)c([N+](=O)[O-])c2)n(-c2cc(OC)c(OC)c(OC)c2)n1` [Compound 7q, 3-Propyl-5-(4-methoxy-3-nitrophenyl)-1-(3,4,5-trimethoxyphenyl)-1H-pyrazole] were 149 to 150 °C, more than 100 µM, more than 100 µM and more than 100 µM.
Regarding `CCc1cc(-c2ccc(OC)c(N)c2)n(-c2cc(OC)c(OC)c(OC)c2)n1` [Compound 7r, 3-Ethyl-5-(3-amino-4-methoxyphenyl)-1-(3,4,5-trimethoxyphenyl)-1H-pyrazole], the melting point lay within 114 to 115 °C. Further, in data set [1], the half-inhibitory concentration (IC50) turned out to be 3.55 ± 0.09 µM. The 50% inhibitory concentration (IC50) in data set [2] is 8.16 ± 0.12 µM. In data set [3], the IC50 was found to be 4.62 ± 0.09 µM.
Taken in the same sequence, the figures for `CCCc1cc(-c2ccc(OC)c(N)c2)n(-c2cc(OC)c(OC)c(OC)c2)n1` [Compound 7s, 3-Propyl-5-(3-amino-4-methoxyphenyl)-1-(3,4,5-trimethoxyphenyl)-1H-pyrazole] were 125 to 126 °C, 56.6 ± 1 µM, 23.2 ± 0.11 µM and 35.7 ± 0.08 µM.
Taken in the same sequence, the figures for `COc1cc(-c2cc(C)nn2-c2ccccc2)cc(OC)c1OC` [Compound 8a, 3-Methyl-1-phenyl-5-(3,4,5-trimethoxyphenyl)-1H-pyrazole] were 88 to 89 °C, more than 100 µM, more than 100 µM and more than 100 µM.
On the same counts, the results for `COc1ccc(-n2nc(C)cc2-c2cc(OC)c(OC)c(OC)c2)cc1` [Compound 8b, 3-Methyl-1-(4-methoxyphenyl)-5-(3,4,5-trimethoxy-phenyl)-1H-pyrazole] are 67 to 68 °C, 9.39 ± 0.21 µM, 28.2 ± 1.9 µM and 19 ± 2 µM.
`COc1cc(-c2cc(C)nn2-c2ccc(C)cc2)cc(OC)c1OC` [Compound 8c, 3-Methyl-1-(4-methylphenyl)-5-(3,4,5-trimethoxy-phenyl)-1H-pyrazole] returned a melting point of 70 to 71 °C. The IC50 in data set [1] is 16.2 ± 1 µM. In data set [2], the IC50 worked out at 15.6 ± 1.5 µM. Besides, the IC50 in data set [3] was determined as 11.8 ± 1.2 µM.
On to `COc1cc(-c2cc(C)nn2-c2cc([N+](=O)[O-])ccc2C)cc(OC)c1OC` [Compound 8d, 3-Methyl-1-(2-methyl-5-nitrophenyl)-5-(3,4,5-trimethoxyphenyl)-1H-pyrazole], for which the melting point lay within 102 to 103 °C. In addition, in data set [1], the IC50 turned out to be 48.6 ± 1.1 µM. Further, the IC50 in data set [2] is more than 100 µM. In data set [3], the IC50 came to 31.1 ± 2.5 µM.
In the case of `COc1cc(-c2cc(C)nn2-c2cc(N)ccc2C)cc(OC)c1OC` [Compound 8e, 3-Methyl-1-(5-amino-2-methylphenyl)-5-(3,4,5-trimethoxyphenyl)-1H-pyrazole], the melting point fell in the range of 69 to 70 °C. Also, the half-inhibitory concentration (IC50) in data set [1] stood at 28.2 ± 1.7 µM. Moreover, the half-inhibitory concentration (IC50) in data set [2] stood at 11.9 ± 1.9 µM. Also, the 50% inhibitory concentration (IC50) in data set [3] was 2.43 ± 0.09 µM.
On the same counts, the results for `COc1ccc(-n2nc(C)cc2-c2cc(OC)c(OC)c(OC)c2)cc1[N+](=O)[O-]` [Compound 8f, 3-Methyl-1-(4-methoxy-3-nitrophenyl)-5-(3,4,5-trimethoxyphenyl)-1H-pyrazole] are 118 to 119 °C, more than 100 µM, more than 100 µM and more than 100 µM.
